Consider 1 compound from patent US20230146455A1, “TREATMENT OF INFLAMMATORY DISEASES WITH PEPTIDES AND PHARMACEUTICAL COMPOSITIONS” (Yuyu Pharma, Inc., priority 2020, published 2023).

This assay has as its system GM-CSF. The assay is described as follows: Example 9 Luminex, LPS hPBMCs: GM-CSF. It counts as cell-based, human. Here is the method:
Treatment Human PBMCs were pretreated with YY-101, YDE-011 and YDE-043 or reference compound; Xiidra® at various concentration (ranging from 1 nM to 100 uM) for 2 h before stimulation. An equal volume of 0.5% DMSO was used as a vehicle control. Then, the cells were treated with LPS at 5 ug/ml. The supernatants from treated cells were harvested at 24 h and placed in a 96 well for Luminex cytokine & chemokine profiling using a Luminex 200 multiplex assay (Luminex; R&D system, USA).
The main study arm with triplicate wells per group in a 24-well plate: • 1. Blank • 2. PBMC: 0.5% DMSO • 3. PBMC+LPS (5 ug/ml) • 4. PBMC+YY-101 100 uM • 5. PBMC+YY-101 10 uM • 6. PBMC+YY-101 1 uM • 7. PBMC+YY-101 0.1 uM • 8. PBMC+YY-101 0.01 uM • 9. PBMC+LPS (5 ug/ml)+Xiidra®100 uM • 10. PBMC+LPS (5 ug/ml)+Xiidra® 10 uM • 11. PBMC+LPS (5 ug/ml)+Xiidra® 1 uM • 12. PBMC+LPS (5 ug/ml)+Xiidra®0.1 uM • 13. PBMC+LPS (5 ug/ml)+Xiidra®0.01 uM • 14. PBMC+LPS (5 ug/ml)+Xiidra®0.001 uM • 15. PBMC+LPS (5 ug/ml)+YY-101 100 uM • 16. PBMC+LPS (5 ug/ml)+YY-101 10 uM • 17. PBMC+LPS (5 ug/ml)+YY-101 1 uM • 18. PBMC+LPS (5 ug/ml)+YY-101 0.1 uM • 19. PBMC+LPS (5 ug/ml)+YY-101 0.01 uM • 20. PBMC+LPS (5 ug/ml)+YY-101 0.001 uM • 21. PBMC+LPS (5 ug/ml)+YDE-011 100 uM • 22. PBMC+LPS (5 ug/ml)+YDE-011 10 uM • 23. PBMC+LPS (5 ug/ml)+YDE-011 1 uM • 24. PBMC+LPS (5 ug/ml)+YDE-011 0.1 uM • 25. PBMC+LPS (5 ug/ml)+YDE-011 0.01 uM • 26. PBMC+LPS (5 ug/ml)+YDE-011 0.001 uM • 27. PBMC+LPS (5 ug/ml)+YDE-043 100 uM • 28. PBMC+LPS (5 ug/ml)+YDE-043 10 uM • 29. PBMC+LPS (5 ug/ml)+YDE-043 1 uM • 30. PBMC+LPS (5 ug/ml)+YDE-043 0.1 uM • 31. PBMC+LPS (5 ug/ml)+YDE-043 0.01 uM • 32. PBMC+LPS (5 ug/ml)+YDE-043 0.001 uM
Multiplex assay was used to measure 30 cytokines and chemokines. The 1:2, 1:10 and 1:200 diluted cell supernatant and serial dilution of the standard were dispensed into a 96 well plate at 50 ul/well. Then, the pre-mixed cocktail of antibody-coated magnetic beads was dispensed at 50 ul/well and incubated at room temperature for 2 h in a horizontal orbital microplate shaker at 800±500 rpm. The beads were washed using a magnetic device to prevent loss. The biotin-antibody was dispensed in 50 ul of each well and incubated at room temperature for 1 h in a shaker at 800±500 rpm. After washing, streptavidin-PE was added at 50 ul/well and incubated at room temperature for 30 min in a shaker under the same conditions. Finally, after washing, wash buffer (100 ul/well) was added to the plate and incubated in a shaker for 2 min. The Luminex™ 200 setting were set according to the manufacturer's protocol. The data was calculated with a standard five-parameter logistic nonlinear regression analysis of the data (xPonent software 4.2, USA). The levels of cytokine/chemokine are normalized to the live cell counts (1×10^5 cells/mL) and presented as concentrations per mL (pg/mL or ng/mL).

Setting [1] is: PBMC + LPS(5 ug/ml) + test article 0.001 uM, Mean.
[2] abbreviates: PBMC + LPS(5 ug/ml) + test article 0.001 uM, single replicates.
[3] abbreviates: PBMC + LPS(5 ug/ml) + test article 0.01 uM, Mean.
Setting [4] is: PBMC + LPS(5 ug/ml) + test article 0.01 uM, single replicates.
Where [5] appears, read: PBMC + LPS(5 ug/ml) + test article 0.1 uM, Mean.
The mark [6] stands for this setting: PBMC + LPS(5 ug/ml) + test article 0.1 uM, single replicates.
The mark [7] stands for this setting: PBMC + LPS(5 ug/ml) + test article 1 uM, Mean.
The mark [8] stands for this setting: PBMC + LPS(5 ug/ml) + test article 1 uM, single replicates.
Setting [9] is: PBMC + LPS(5 ug/ml) + test article 10 uM, Mean.
Setting [10] is: PBMC + LPS(5 ug/ml) + test article 10 uM, single replicates.
Setting [11] is: PBMC + LPS(5 ug/ml) + test article 100 uM, Mean.
Setting [12] is: PBMC + LPS(5 ug/ml) + test article 100 uM, single replicates.

Several values for one entry are separate records, joined by “and”; a condition that tells them apart may be missing. Equal entries are not always repeated. Where a SMILES comes first, the peptide text is derived from it. [ ]: non-standard residue; d: D form. Hyp = O=C(O)[C@@H]1C[C@@H](O)CN1

With `CC(C)C[C@H](NC(=O)[C@H](CCC(N)=O)NC(=O)CNC(=O)[C@@H]1C[C@@H](O)CN1)C(=O)NCC(=O)O` [YDE-043] (H-[Hyp]GQLG-OH; N-terminus and C-terminus assumed), the “GM-CSF Concentration” value was 96.8 pg/mL under setting [1]; 85.3 pg/mL and 103.8 pg/mL and 101.3 pg/mL under setting [2]; 92.9 pg/mL under setting [3]; 94.6 pg/mL and 86.1 pg/mL and 97.9 pg/mL under setting [4]; 92.5 pg/mL under setting [5]; 87.8 pg/mL and 91.2 pg/mL and 98.4 pg/mL under setting [6]. In addition, the “GM-CSF Concentration” value runs as follows: under setting [7], 91.6 pg/mL; under setting [8], 89.5 pg/mL and 92.1 pg/mL and 93.3 pg/mL; under setting [9], 101.0 pg/mL; under setting [10], 102.1 pg/mL and 96.3 pg/mL and 104.6 pg/mL; under setting [11], 137.2 pg/mL; under setting [12], 140.1 pg/mL and 134.4 pg/mL. In addition, the GM-CSF conc/live cell runs as follows: under setting [1], 19.6 pg/10^5; under setting [2], 19.4 pg/10^5 and 17.3 pg/10^5 and 22.0 pg/10^5; under setting [3], 17.9 pg/10^5; under setting [4], 21.0 pg/10^5 and 13.1 pg/10^5 and 19.6 pg/10^5; under setting [5], 17.1 pg/10^5; under setting [6], 17.6 pg/10^5 (2×) and 16.3 pg/10^5. In addition, the GM-CSF conc/live cell was 17.4 pg/10^5 under setting [7]; 15.4 pg/10^5 and 19.2 pg/10^5 and 17.6 pg/10^5 under setting [8]; 18.7 pg/10^5 under setting [9]; 19.6 pg/10^5 and 17.8 pg/10^5 and 18.7 pg/10^5 under setting [10]; 21.8 pg/10^5 under setting [11]; 22.6 pg/10^5 and 21.0 pg/10^5 under setting [12].
